Data taken from patent US8093406B2, “Cyclic sulfones with aminobenzyl substitution useful as BACE inhibitors” (Novartis AG, priority 2008, dated 2012).
Where a name gives a salt, the structure may show the parent alone.

target: T1, Human BACE (Homo sapiens, UniProt P56817); experiment: Test 1: Inhibition of Human BACE; assay type: biochemical; settings: Test 1; recombinant BACE extracellular domain, acetate buffer pH 4.5, 1 hour incubation at room temperature, fluorescence-quenched APP-derived peptide substrate; read-out: Bace IC50
T1 construct: Recombinant BACE (extracellular domain, expressed in baculovirus and purified using standard methods); made in house
T1 sequence (P56817 46-457 limits assumed): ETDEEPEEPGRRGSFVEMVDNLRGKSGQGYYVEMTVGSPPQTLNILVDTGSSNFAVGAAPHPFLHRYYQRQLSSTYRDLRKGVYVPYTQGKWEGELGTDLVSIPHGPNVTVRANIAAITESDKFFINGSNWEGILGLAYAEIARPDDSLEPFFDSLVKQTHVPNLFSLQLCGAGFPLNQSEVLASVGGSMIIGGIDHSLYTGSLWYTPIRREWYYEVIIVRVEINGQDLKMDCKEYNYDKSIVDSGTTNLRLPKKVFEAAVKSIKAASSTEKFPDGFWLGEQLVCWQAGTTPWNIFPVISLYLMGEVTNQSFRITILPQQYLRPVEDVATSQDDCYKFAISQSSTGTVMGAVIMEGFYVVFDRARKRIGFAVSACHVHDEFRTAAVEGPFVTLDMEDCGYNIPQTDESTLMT
Method: Test 1: Inhibition of Human BACE
Recombinant BACE (extracellular domain, expressed in baculovirus and purified using standard methods) at 0.1 to 10 nM concentrations is incubated with the test compound at various concentrations for 1 hour at room temperature in 10 to 100 mM acetate buffer, pH 4.5, containing 0.1% CHAPS. […] IC50 values are calculated from percentage of inhibition of BACE-activity as a function of the test compound concentration.

IC50 | SMILES
8400 nM | CN(C)CCNc1ccc(C[C@@H]2CS(=O)(=O)C[C@H](NCc3cccc(C(C)(C)C)c3)[C@H]2O)cc1F (racemic) [Example 7, (3R*,4S*,5S*)-3-(3-tert-Butyl-benzylamino)-5-[4A2-dimethylamino-ethyl-amino)-3-fluoro-benzyl]-1,1-dioxo-hexahydro-1lambda*6*-thiopyran-4-ol]
38 nM | CCCCNC(=O)c1cc(C[C@@H]2CS(=O)(=O)C[C@H](NCc3cccc(C(C)(C)C)c3)[C@H]2O)ccc1N (racemic) [Example 18, 2-Amino-N-butyl-5-[3S*,4S*,5R*)-5-(3-tert-butyl-benzylamino)-4-hydroxy-1,1-dioxo-hexahydro-1lambda*6*-thiopyran-3-ylmethyl]-benzamide]
1140 nM | CCNCc1cc(C[C@@H]2CS(=O)(=O)C[C@H](NCc3cccc(C(C)(C)C)c3)[C@H]2O)cc(F)c1N (relative stereo) [Example 3, (3S*,4S*,5R*)-3-(4-Amino-3-ethylaminomethyl-5-fluoro-benzyl)-5-(3-tert-butyl-benzylamino)-1,1-dioxo-hexahydro-1lambda*6*-thiopyran-4-ol hydrochloride]
326 nM | CC(C)(C)c1cccc(CN[C@H]2CS(=O)(=O)C[C@@H](Cc3cc(F)c(N)c(N4CCCC4=O)c3)[C@@H]2O)c1 (relative stereo) [Example 4, 1-{2-Amino-5-[(3S*,4S*,5R*)-5-(3-tert-butyl-benzylamino)-4-hydroxy-1,1-dioxo-hexahydro-1lambda*6*-thiopyran-3-ylmethyl]-3-fluoro-phenyl}-pyrrolidin-2-one di-trifluoroacetate]
4700 nM | CC(C)(C)c1cccc(CN[C@H]2CS(=O)(=O)C[C@@H](Cc3cc(F)c(N)c(N4CCC4=O)c3)[C@@H]2O)c1 (relative stereo) [Example 5, 1 {2-Amino-5-[(3S*,4S*,5R*)-5-(3-tert-butyl-benzylamino)-4-hydroxy-1,1-dioxo-hexahydro-1lambda*6*-thiopyran-3-ylmethyl]-3-fluoro-phenyl}-azetidin-2-one]
42 nM | CCNCC(=O)Nc1c(F)cc(C[C@@H]2CS(=O)(=O)C[C@H](NCc3cccc(C(C)(C)C)c3)[C@H]2O)cc1CC [Example 8, N-{4-[(3S,4S,5R)-5-(3-tert-Butyl-benzylamino)-4-hydroxy-1,1-dioxo-hexahydro-1lambda*6*-thiopyran-3-ylmethyl]-2-ethyl-6-fluoro-phenyl}-2-ethylamino-acetamide dihydrochloride]
48 nM | CCc1cc(C[C@@H]2CS(=O)(=O)C[C@H](NCc3cccc(C(C)(C)C)c3)[C@H]2O)cc(F)c1NC(=O)COC [Example 10, N-{4-[(3S,4S,5R)-5-(3-tert-Butyl-benzylamino)-4-hydroxy-1,1-dioxo-hexa-hydro-1lambda*6*-thiopyran-3-ylmethyl]-2-ethyl-6-fluoro-phenyl}-2-methoxy-acetamide hydrochloride]
74 nM | CN(C)CC(=O)Nc1c(F)cc(C[C@@H]2CS(=O)(=O)C[C@H](NCc3cccc(C(C)(C)C)c3)[C@H]2O)cc1Cl [Example 11, N-{4-[(3S,4S,5R)-5-(3-tert-Butyl-benzylamino)-4-hydroxy-1,1-dioxo-hexa-hydro-1lambda*6*-thiopyran-3-ylmethyl]-2-chloro-6-fluoro-phenyl}-2-dimethylamino-acetamide dihydrochloride]
20 nM | CCNCC(=O)Nc1c(F)cc(C[C@@H]2CS(=O)(=O)C[C@H](NCc3cccc(C(C)(C)C)c3)[C@H]2O)cc1Cl [Example 12]
28 nM | CNCC(=O)Nc1c(F)cc(C[C@@H]2CS(=O)(=O)C[C@H](NCc3cccc(C(C)(C)C)c3)[C@H]2O)cc1Cl [Example 13]
22 nM | CC(C)(C)c1cccc(CN[C@H]2CS(=O)(=O)C[C@@H](Cc3cc(F)c(NC(=O)CNC4CC4)c(Cl)c3)[C@@H]2O)c1 [Example 14, N-{4-[(3S,4S,5R)-5-(3-tert-butyl-benzylamino)-4-hydroxy-1,1-dioxo-hexa-hydro-1lambda*6*-thiopyran-3-ylmethyl]-2-chloro-6-fluoro-phenyl}-2-cyclopropylamino-acetamide]
50 nM | CC(C)(C)NCC(=O)Nc1c(F)cc(C[C@@H]2CS(=O)(=O)C[C@H](NCc3cccc(C(C)(C)C)c3)[C@H]2O)cc1Cl [Example 15]
34 nM | CC(C)(C)c1cccc(CN[C@H]2CS(=O)(=O)C[C@@H](Cc3cc(F)c(NC(=O)CN4CCCCC4)c(Cl)c3)[C@@H]2O)c1 [Example 16]
26 nM | CCNC(=O)c1cc(CC2CS(=O)(=O)CC(NCc3cccc(C(C)(C)C)c3)C2O)ccc1N (stereo not drawn) [Example 19]
151 nM | CCCNC(=O)c1cc(CC2CS(=O)(=O)CC(NCc3cccc(C(C)(C)C)c3)C2O)ccc1N (stereo not drawn) [Example 20]
8 nM | CC(C)(C)c1cccc(CNC2CS(=O)(=O)CC(Cc3ccc(N)c(C(=O)NCC4CC4)c3)C2O)c1 (stereo not drawn) [Example 21]
46 nM | CC(C)(C)c1cccc(CNC2CS(=O)(=O)CC(Cc3ccc(N)c(C(=O)NCCF)c3)C2O)c1 (stereo not drawn) [Example 22]
175 nM | CC(C)(C)c1cccc(CNC2CS(=O)(=O)CC(Cc3ccc(N)c(C(=O)NCC(F)(F)F)c3)C2O)c1 (stereo not drawn) [Example 23]
7 nM | CN(C)CC(=O)Nc1c(F)cc(C[C@@H]2CS(=O)(=O)C[C@H](NCc3cccc(C(C)(C)C)c3)[C@H]2O)cc1OCC(F)(F)F [Example 26, N-[4-[(3S,4S,5R)-5-(3-tert-Butyl-benzylamino)-4-hydroxy-1,1-dioxo-hexahydro-1lambda*6*-thiopyran-3-ylmethyl]-2-fluoro-6-(2,2,2-trifluoro-ethoxy)-phenyl]-2-dimethylamino-acetamide dihydrochloride]
3 nM | CCNCC(=O)Nc1c(F)cc(C[C@@H]2CS(=O)(=O)C[C@H](NCc3cccc(C(C)(C)C)c3)[C@H]2O)cc1OCC(F)(F)F [Example 27]
7 nM | CC(C)(C)c1cccc(CN[C@H]2CS(=O)(=O)C[C@@H](Cc3cc(F)c(NC(=O)CN4CCC4)c(OCC(F)(F)F)c3)[C@@H]2O)c1 [Example 28]
5 nM | CC(C)(C)c1cccc(CN[C@H]2CS(=O)(=O)C[C@@H](Cc3cc(F)c(NC(=O)CN4CCCCC4)c(OCC(F)(F)F)c3)[C@@H]2O)c1 [Example 29]
22 nM | C[Si](C)(C)c1cccc(CN[C@H]2CS(=O)(=O)C[C@@H](Cc3cc(F)c(N)c(OC(C(F)(F)F)C(F)(F)F)c3)[C@@H]2O)c1 [Example 31, (3S,4S,5R)-3-[4-Amino-3-fluoro-5-(2,2,2-trifluoro-1-trifluoromethyl-ethoxy)-benzyl]-1,1-dioxo-5-(3-trimethylsilanyl-benzylamino)-hexahydro-1lambda*6*-thiopyran-4-ol]
3 nM | CC(C)(C)c1cccc(CN[C@H]2CS(=O)(=O)C[C@@H](Cc3cc(F)c(N)c(O[C@H](CO)C(F)(F)F)c3)[C@@H]2O)c1 [Example 38, (3S,4S,5R)-3-[4-Amino-3-fluoro-5-((R)-2,2,2-trifluoro-1-hydroxymethyl-ethoxy)-benzyl]-5-(3-tert-butyl-benzylamino)-1,1-dioxo-hexahydro-1lambda*6*-thio-pyran-4-ol]
71 nM | CC(C)(C)c1cccc(CN[C@H]2CS(=O)(=O)C[C@@H](Cc3cc(F)c(N)c(O[C@H](CN)C(F)(F)F)c3)[C@@H]2O)c1 [Example 39, (3S,4S,5R)-3-[4-Amino-3-((R)-1-aminomethyl-2,2,2-trifluoro-ethoxy)-5-fluoro-benzyl]-5-(3-tert-butyl-benzylamino)-1,1-dioxo-hexahydro-1lambda*6*-thiopyran-4-ol]
247 nM | COC[C@@H](Oc1cc(C[C@@H]2CSC[C@H](NCc3cccc(C(C)(C)C)c3)[C@H]2O)cc(F)c1N)C(F)(F)F [Example 40, (3S,4S,5R)-3-[4-Amino-3-fluoro-5-((R)-2,2,2-trifluoro-1-methoxymethyl-ethoxy)-benzyl]-5-(3-tert-butyl-benzylamino)-tetrahydro-thiopyran-4-ol hydrochloride]
10 nM | COC[C@@H](Oc1cc(C[C@@H]2C[S+]([O-])C[C@H](NCc3cccc(C4(C)CC4)c3)[C@H]2O)cc(F)c1N)C(F)(F)F (stereo partly drawn) [Example 43, (3S,4S,5R)-3-[4-Amino-3-fluoro-5-((R)-2,2,2-trifluoro-1-methoxymethyl-ethoxy)-benzyl]-5-[3-(1-methyl-cyclopropyl)-benzylamino]-1-oxo-hexahydro-1lambda*4*-thiopyran-4-ol hydrochloride]
27 nM | COC[C@@H](Oc1cc(C[C@@H]2C[S@@+]([O-])C[C@H](NCc3cccc(C(C)(C)C(F)(F)F)c3)[C@H]2O)cc(F)c1N)C(F)(F)F [Example 44, (1R,3S,4S,5R)-3-[4-Amino-3-fluoro-5-((R)-2,2,2-trifluoro-1-methoxymethyl-ethoxy)-benzyl]-1-oxo-5-[3-(2,2,2-trifluoro-1,1-dimethyl-ethyl)-benzylamino]-tetrahydro-thiopyran-4-ol]
26 nM | COC[C@@H](Oc1cc(C[C@@H]2C[S@@+]([O-])C[C@H](NCc3cc(OC)cc(C(C)C)c3)[C@H]2O)cc(F)c1N)C(F)(F)F [Example 48, (1R,3S,4S,5R)-3-[4-Amino-3-fluoro-5-((R)-2,2,2-trifluoro-1-methoxymethyl-ethoxy)-benzyl]-5-(3-isopropyl-5-methoxy-benzylamino)-1-oxo-tetrahydro-thiopyran-4-ol]

SMILES | IC50
CC(C)(C)c1cccc(CN[C@H]2CS(=O)(=O)C[C@@H](Cc3cc(F)c(NCCNC4CC4)c(Cl)c3)[C@@H]2O)c1 [Example 17, (3R,4S,5S)-3-(3-tert-Butyl-benzylamino)-5-[3-chloro-4-(2-cyclopropyl-amino-ethylamino)-5-fluoro-benzyl]-1,1-dioxo-hexahydro-1lambda*6*-thiopyran-4-ol hydrochloride] | 1760 nM
